Laboratory results as given in the kinase profiling compilation of Christmann-Franck et al. (2016).

How the values were obtained:
Assay in all cases: radiometric filter-binding kinase assay, Kinase HotSpot
Settings in all cases: compound 0.5 µM; ATP 10 µM
[1] = biological target: TAOK3 (human) (UniProt Q9H2K8)
[2] = biological target: CDK1 CCNB1 (human) (UniProt P06493+P14635)
[3] = biological target: HIPK1 (human) (UniProt Q86Z02)
[4] = biological target: CSNK2A1 (human) (UniProt P68400)
[5] = biological target: MAP4K2 (human) (UniProt Q12851)
[6] = biological target: ACVR1 (human) (UniProt Q04771)
[7] = biological target: STK24 (human) (UniProt Q9Y6E0)
[8] = biological target: MAPK1 (human) (UniProt P28482)
[9] = biological target: KDR (human) (UniProt P35968)
[10] = biological target: OXSR1 (human) (UniProt O95747)
[11] = biological target: NEK7 (human) (UniProt Q8TDX7)
[12] = biological target: AKT1 (human) (UniProt P31749)
[13] = biological target: ROS1 (human) (UniProt P08922)
[14] = biological target: MAPKAPK2 (human) (UniProt P49137)
[15] = biological target: CLK4 (human) (UniProt Q9HAZ1)
[16] = biological target: EPHA4 (human) (UniProt P54764)
[17] = biological target: WEE1 (human) (UniProt P30291)
[18] = biological target: IKBKB (human) (UniProt O14920)
[19] = biological target: MAP3K5 (human) (UniProt Q99683)
[20] = biological target: BTK (human) (UniProt Q06187)
[21] = biological target: MST1R (human) (UniProt Q04912)
[22] = biological target: TEK (human) (UniProt Q02763)
[23] = biological target: FGFR2 (human) (UniProt P21802)
[24] = biological target: DSTYK (human) (UniProt Q6XUX3)
[25] = biological target: FGFR4 (human) (UniProt P22455)
[26] = biological target: JAK3 JH1 JH2 (human) (UniProt P52333)
[27] = biological target: PAK1 (human) (UniProt Q13153)
[28] = biological target: STK3 (human) (UniProt Q13188)
[29] = biological target: TAOK2 (human) (UniProt Q9UL54)
[30] = biological target: EPHA7 (human) (UniProt Q15375)
[31] = biological target: NEK4 (human) (UniProt P51957)
[32] = biological target: CHEK1 (human) (UniProt O14757)
[33] = biological target: PDPK1 (human) (UniProt O15530)
[34] = biological target: ULK1 (human) (UniProt O75385)
[35] = biological target: PTK6 (human) (UniProt Q13882)
[36] = biological target: HIPK4 (human) (UniProt Q8NE63)
[37] = biological target: PRKD3 (human) (UniProt O94806)
[38] = biological target: PIM3 (human) (UniProt Q86V86)
[39] = biological target: ZAP70 (human) (UniProt P43403)
[40] = biological target: RPS6KA5 KD2 (human) (UniProt O75582)
[41] = biological target: ROCK2 (human) (UniProt O75116)
[42] = biological target: CAMKK1 (human) (UniProt Q8N5S9)

Chain of OXSR1 (human) (O95747 whole entry, looked up): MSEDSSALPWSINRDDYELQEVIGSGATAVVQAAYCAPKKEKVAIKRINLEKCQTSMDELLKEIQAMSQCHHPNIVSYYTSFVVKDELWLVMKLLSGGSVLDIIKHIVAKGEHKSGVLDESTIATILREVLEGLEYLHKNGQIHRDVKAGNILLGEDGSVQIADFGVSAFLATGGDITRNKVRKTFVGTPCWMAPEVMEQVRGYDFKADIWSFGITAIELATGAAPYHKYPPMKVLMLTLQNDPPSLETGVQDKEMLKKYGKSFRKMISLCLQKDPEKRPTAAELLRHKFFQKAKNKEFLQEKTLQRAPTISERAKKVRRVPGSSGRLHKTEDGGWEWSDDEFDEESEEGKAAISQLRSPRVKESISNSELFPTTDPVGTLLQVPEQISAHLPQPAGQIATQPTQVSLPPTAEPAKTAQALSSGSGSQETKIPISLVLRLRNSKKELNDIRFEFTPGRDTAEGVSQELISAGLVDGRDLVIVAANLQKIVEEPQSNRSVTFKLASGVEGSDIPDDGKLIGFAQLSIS
Chain of AKT1 (human) (P31749 whole entry, looked up): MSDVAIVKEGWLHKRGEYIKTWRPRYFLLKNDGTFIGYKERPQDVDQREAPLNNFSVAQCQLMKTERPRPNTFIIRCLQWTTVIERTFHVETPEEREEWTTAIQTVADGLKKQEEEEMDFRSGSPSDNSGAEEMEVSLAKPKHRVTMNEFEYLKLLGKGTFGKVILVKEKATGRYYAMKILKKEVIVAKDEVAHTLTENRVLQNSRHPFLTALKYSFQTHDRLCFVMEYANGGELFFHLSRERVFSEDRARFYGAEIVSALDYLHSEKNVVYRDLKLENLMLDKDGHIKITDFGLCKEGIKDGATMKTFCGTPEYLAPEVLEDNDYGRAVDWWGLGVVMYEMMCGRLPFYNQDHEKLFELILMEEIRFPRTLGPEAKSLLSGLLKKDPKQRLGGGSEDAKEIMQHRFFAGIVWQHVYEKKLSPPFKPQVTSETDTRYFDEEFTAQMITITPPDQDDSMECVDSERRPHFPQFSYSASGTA
Chain of STK3 (human) (Q13188 whole entry, looked up): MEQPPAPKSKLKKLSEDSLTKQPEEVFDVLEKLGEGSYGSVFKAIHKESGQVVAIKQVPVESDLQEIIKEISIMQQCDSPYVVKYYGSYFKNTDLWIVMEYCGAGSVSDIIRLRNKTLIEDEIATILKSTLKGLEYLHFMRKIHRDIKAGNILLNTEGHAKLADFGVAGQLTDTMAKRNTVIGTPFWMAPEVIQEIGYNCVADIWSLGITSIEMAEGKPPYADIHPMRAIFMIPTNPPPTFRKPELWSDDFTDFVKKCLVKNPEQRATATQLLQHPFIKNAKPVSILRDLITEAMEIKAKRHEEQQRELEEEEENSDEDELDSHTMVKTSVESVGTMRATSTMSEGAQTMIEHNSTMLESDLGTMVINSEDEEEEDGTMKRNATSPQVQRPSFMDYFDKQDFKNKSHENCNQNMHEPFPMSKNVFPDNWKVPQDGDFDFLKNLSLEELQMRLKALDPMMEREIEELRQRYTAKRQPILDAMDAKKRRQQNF
Chain of CDK1 CCNB1 (human) (P06493 whole entry, looked up): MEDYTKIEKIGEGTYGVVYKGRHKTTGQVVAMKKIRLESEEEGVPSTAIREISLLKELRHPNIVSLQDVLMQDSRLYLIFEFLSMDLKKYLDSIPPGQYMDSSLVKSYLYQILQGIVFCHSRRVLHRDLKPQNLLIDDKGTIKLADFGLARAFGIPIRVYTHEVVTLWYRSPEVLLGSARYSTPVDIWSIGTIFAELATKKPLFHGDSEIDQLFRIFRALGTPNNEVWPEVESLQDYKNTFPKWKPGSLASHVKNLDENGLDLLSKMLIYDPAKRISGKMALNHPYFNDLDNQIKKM
Chain of CDK1 CCNB1 (human) (P14635 whole entry, looked up): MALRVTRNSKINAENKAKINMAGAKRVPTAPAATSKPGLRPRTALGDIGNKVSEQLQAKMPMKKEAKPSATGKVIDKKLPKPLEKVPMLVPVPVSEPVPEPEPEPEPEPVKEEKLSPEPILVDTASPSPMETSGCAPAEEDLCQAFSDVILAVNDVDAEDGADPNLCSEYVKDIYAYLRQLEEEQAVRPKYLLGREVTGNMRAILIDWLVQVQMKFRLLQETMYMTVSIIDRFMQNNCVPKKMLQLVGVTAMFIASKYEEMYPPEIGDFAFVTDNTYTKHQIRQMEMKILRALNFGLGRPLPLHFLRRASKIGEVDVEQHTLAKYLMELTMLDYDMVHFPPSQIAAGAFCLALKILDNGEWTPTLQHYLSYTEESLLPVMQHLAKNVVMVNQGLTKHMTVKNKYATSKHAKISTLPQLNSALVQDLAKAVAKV
Chain of CHEK1 (human) (O14757 whole entry, looked up): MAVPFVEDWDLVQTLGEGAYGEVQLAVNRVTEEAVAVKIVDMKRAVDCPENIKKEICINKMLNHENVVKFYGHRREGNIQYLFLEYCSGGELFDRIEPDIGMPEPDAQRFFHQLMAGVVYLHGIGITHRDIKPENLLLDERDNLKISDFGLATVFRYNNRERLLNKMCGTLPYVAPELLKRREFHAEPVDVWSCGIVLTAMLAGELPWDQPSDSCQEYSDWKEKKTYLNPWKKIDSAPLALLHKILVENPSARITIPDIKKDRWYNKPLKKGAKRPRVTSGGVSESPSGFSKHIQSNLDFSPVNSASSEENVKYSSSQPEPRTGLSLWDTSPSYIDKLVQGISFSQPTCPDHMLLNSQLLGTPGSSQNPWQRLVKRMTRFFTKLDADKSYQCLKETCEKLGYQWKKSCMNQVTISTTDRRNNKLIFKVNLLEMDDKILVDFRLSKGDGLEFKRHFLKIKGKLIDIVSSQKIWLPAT
Chain of ROCK2 (human) (O75116 whole entry, looked up): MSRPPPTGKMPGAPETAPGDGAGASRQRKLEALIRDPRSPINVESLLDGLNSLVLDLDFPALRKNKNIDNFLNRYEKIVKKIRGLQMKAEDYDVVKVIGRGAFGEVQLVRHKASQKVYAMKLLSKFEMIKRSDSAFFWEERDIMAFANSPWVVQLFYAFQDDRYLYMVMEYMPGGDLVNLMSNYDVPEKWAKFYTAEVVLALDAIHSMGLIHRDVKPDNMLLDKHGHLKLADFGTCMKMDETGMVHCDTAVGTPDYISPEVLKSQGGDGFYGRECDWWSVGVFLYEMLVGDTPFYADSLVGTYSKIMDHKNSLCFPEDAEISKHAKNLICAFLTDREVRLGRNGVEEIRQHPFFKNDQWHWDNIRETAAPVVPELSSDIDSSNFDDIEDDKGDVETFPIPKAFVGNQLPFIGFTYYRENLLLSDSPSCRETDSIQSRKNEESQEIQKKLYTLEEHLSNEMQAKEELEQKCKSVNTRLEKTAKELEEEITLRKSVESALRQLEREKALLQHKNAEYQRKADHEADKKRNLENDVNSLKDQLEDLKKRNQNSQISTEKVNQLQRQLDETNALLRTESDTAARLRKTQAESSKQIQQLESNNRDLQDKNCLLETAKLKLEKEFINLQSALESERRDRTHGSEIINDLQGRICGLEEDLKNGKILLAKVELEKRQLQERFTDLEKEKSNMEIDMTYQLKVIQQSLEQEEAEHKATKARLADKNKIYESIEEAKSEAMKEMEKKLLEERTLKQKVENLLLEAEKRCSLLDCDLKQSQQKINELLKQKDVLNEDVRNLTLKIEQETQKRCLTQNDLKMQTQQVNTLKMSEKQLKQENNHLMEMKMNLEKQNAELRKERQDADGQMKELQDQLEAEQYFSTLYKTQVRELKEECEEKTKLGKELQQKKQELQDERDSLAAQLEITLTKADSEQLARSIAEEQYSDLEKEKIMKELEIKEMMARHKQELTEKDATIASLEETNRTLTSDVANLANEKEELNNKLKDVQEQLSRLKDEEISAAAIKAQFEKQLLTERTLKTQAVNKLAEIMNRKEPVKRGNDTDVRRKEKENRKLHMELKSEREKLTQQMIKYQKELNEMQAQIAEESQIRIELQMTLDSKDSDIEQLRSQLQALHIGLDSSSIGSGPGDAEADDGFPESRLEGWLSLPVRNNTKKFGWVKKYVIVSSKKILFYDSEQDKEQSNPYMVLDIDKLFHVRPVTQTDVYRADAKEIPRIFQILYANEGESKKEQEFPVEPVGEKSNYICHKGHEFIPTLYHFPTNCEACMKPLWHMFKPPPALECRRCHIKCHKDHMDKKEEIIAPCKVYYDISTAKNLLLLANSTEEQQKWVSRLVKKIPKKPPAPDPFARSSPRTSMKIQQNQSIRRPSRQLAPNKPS
Chain of CSNK2A1 (human) (P68400 whole entry, looked up): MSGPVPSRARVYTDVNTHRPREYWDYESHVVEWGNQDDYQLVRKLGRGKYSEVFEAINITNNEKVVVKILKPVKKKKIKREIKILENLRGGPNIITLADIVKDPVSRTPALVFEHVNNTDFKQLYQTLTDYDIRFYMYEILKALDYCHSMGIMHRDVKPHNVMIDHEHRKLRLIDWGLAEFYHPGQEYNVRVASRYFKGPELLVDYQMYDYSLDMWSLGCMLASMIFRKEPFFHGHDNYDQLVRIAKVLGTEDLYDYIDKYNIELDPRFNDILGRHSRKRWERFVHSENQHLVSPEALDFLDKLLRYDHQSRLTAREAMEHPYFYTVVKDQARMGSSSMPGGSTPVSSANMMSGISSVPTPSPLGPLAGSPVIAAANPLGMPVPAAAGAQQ

O=C1Cc2c([nH]c3ccc([N+](=O)[O-])cc23)-c2ccccc2N1
residual activity [1]: 76.7% | residual activity [2]: 23.2% | residual activity [3]: 98.5% | residual activity [4]: 86.8% | residual activity [5]: 8.77% | residual activity [6]: 79.7% | residual activity [7]: 66.4% | residual activity [8]: 106% | residual activity [9]: 87.8% | residual activity [10]: 97% | residual activity [11]: 89.7% | residual activity [12]: 107% | residual activity [13]: 80.2% | residual activity [14]: 77.4% | residual activity [15]: 86.4% | residual activity [16]: 96.5% | residual activity [17]: 98.2% | residual activity [18]: 102% | residual activity [19]: 101% | residual activity [20]: 98.2% | residual activity [21]: 103% | residual activity [22]: 92.1% | residual activity [23]: 96.7% | residual activity [24]: 90% | residual activity [25]: 90.6% | residual activity [26]: 99.7% | residual activity [27]: 36.7% | residual activity [28]: 70.3% | residual activity [29]: 88.9% | residual activity [30]: 95% | residual activity [31]: 109% | residual activity [32]: 37.5% | residual activity [33]: 93.7% | residual activity [34]: 85.1% | residual activity [35]: 92.7% | residual activity [36]: 103% | residual activity [37]: 88.2% | residual activity [38]: 62.3% | residual activity [39]: 91.4% | residual activity [40]: 107% | residual activity [41]: 82% | residual activity [42]: 91.7%

Nc1nc(Nc2ccc(S(N)(=O)=O)cc2)nn1C(=O)c1c(F)cccc1F
residual activity [1]: 39.9% | residual activity [2]: 5.65% | residual activity [3]: 106% | residual activity [4]: 104% | residual activity [5]: 58.4% | residual activity [6]: 104% | residual activity [7]: 76.9% | residual activity [8]: 98.4% | residual activity [9]: 64.6% | residual activity [10]: 88.8% | residual activity [11]: 99% | residual activity [12]: 120% | residual activity [13]: 39.5% | residual activity [14]: 95.8% | residual activity [15]: 41.6% | residual activity [16]: 91.3% | residual activity [17]: 83.6% | residual activity [18]: 105% | residual activity [19]: 103% | residual activity [20]: 87.1% | residual activity [21]: 115% | residual activity [22]: 84.2% | residual activity [23]: 79.7% | residual activity [24]: 86.2% | residual activity [25]: 90.3% | residual activity [26]: 8.5% | residual activity [27]: 89.5% | residual activity [28]: 34.3% | residual activity [29]: 8.92% | residual activity [30]: 68.7% | residual activity [31]: 79.2% | residual activity [32]: 76.3% | residual activity [33]: 92.3% | residual activity [34]: 62.5% | residual activity [35]: 83.9% | residual activity [36]: 67.7% | residual activity [37]: 55.6% | residual activity [38]: 102% | residual activity [39]: 94.8% | residual activity [40]: 97.2% | residual activity [41]: 18.6% | residual activity [42]: 86.4%

O=c1cc(N2CCNCC2)oc2c(-c3ccccc3)cccc12
residual activity [1]: 92.8% | residual activity [2]: 106% | residual activity [3]: 110% | residual activity [4]: 89.9% | residual activity [5]: 87.6% | residual activity [6]: 90.3% | residual activity [7]: 89.6% | residual activity [8]: 65.4% | residual activity [9]: 99.8% | residual activity [10]: 85.6% | residual activity [11]: 95.7% | residual activity [12]: 103% | residual activity [13]: 99.2% | residual activity [14]: 103% | residual activity [15]: 88.9% | residual activity [16]: 100% | residual activity [17]: 83.4% | residual activity [18]: 103% | residual activity [19]: 106% | residual activity [20]: 85.7% | residual activity [21]: 96% | residual activity [22]: 95% | residual activity [23]: 98.9% | residual activity [24]: 92.8% | residual activity [25]: 106% | residual activity [26]: 96.9% | residual activity [27]: 99% | residual activity [28]: 102% | residual activity [29]: 98.3% | residual activity [30]: 102% | residual activity [31]: 86.4% | residual activity [32]: 104% | residual activity [33]: 110% | residual activity [34]: 107% | residual activity [35]: 99.2% | residual activity [36]: 96.9% | residual activity [37]: 88.6% | residual activity [38]: 93.5% | residual activity [39]: 102% | residual activity [40]: 99.1% | residual activity [41]: 87.5% | residual activity [42]: 105%

O=C(NC(NC(=S)Nc1ccc(F)c([N+](=O)[O-])c1)C(Cl)(Cl)Cl)C(c1ccccc1)c1ccccc1 (stereo not drawn)
residual activity [1]: 121% | residual activity [2]: 92.1% | residual activity [3]: 108% | residual activity [4]: 95.4% | residual activity [5]: 111% | residual activity [6]: 98.8% | residual activity [7]: 92.8% | residual activity [8]: 97.6% | residual activity [9]: 92.5% | residual activity [10]: 98.3% | residual activity [11]: 102% | residual activity [12]: 118% | residual activity [13]: 99.5% | residual activity [14]: 96.3% | residual activity [15]: 105% | residual activity [16]: 101% | residual activity [17]: 91.8% | residual activity [18]: 102% | residual activity [19]: 97.1% | residual activity [20]: 104% | residual activity [21]: 102% | residual activity [22]: 97.8% | residual activity [23]: 97.7% | residual activity [24]: 100% | residual activity [25]: 100% | residual activity [26]: 110% | residual activity [27]: 86% | residual activity [28]: 107% | residual activity [29]: 103% | residual activity [30]: 109% | residual activity [31]: 87.8% | residual activity [32]: 100% | residual activity [33]: 112% | residual activity [34]: 99.1% | residual activity [35]: 87.8% | residual activity [36]: 104% | residual activity [37]: 98.5% | residual activity [38]: 120% | residual activity [39]: 94.2% | residual activity [40]: 113% | residual activity [41]: 109% | residual activity [42]: 128%
